Measurements from paper PMC4848734, “Purification and Characterization of a Novel Intracellular Sucrase Enzyme of Leishmania donovani Promastigotes” (Biochemistry Research International, 2016).

Assays:
[1] = tested on: T1, intracellular sucrase; assay: colorimetric glucose release ([…] nm), Lineweaver-Burk; type: biochemical, Leishmania donovani; conditions: 50 mM sodium acetate, pH 6.0, 30°C, 30 min; 0.4-5.0 mM sucrose; purified enzyme
T1 construct: native purification from promastigote cell-free extract; ~56 kDa subunit (SDS-PAGE), ~112 kDa native, proposed homodimer; gene not identified

[2] = target: intracellular sucrase of Leishmania donovani promastigotes (Leishmania donovani (endogenous in promastigotes, strain MOHM/IN/1978/UR6)); assay: SEC; Sephacryl S-200 column (120 x 1 cm), Buffer A (50 mM Tris-HCl, pH 7.4), 22 mL/hr; ammonium sulfate fraction of cell-free extract, sucrase followed by activity; native size from calibration graph compared with the subunit size in 10% SDS-PAGE

Row | stoichiometry N [2] | Compound | Km [1]
1 |  | OC[C@H]1O[C@@](CO)(O[C@H]2O[C@H](CO)[C@@H](O)[C@H](O)[C@H]2O)[C@@H](O)[C@@H]1O [sucrose] | 1610 µM
2 | 2 | intracellular sucrase of Leishmania donovani promastigotes (enzyme) | 
